Data on one compound can be found in US6551774B1, “Diagnostic methods for conditions associated with elevated cellular levels of telomerase activity” (Board of Regents, The University of Texas System, priority 1992, dated 2003).

Test [1] deals with Tetrahymena cells. The experiment in a line: Single-cell transfer cultures of Tetrahymena with AZT or Ara-G. Format: cell-based, Tetrahymena thermophila. The procedure: For analysis of vegetative growth and macronuclear DNA from single-cell cultures containing the nucleoside analogs AZT or Ara-G, SB210 (VI) cells were grown from stationary stock cultures overnight at 30° C. with shaking (100 rpm) in 50 ml 2% PPYS or Isobroth. Cells were counted and added to the appropriate medium plus analog (Ara-G to 1 mM or DMSO to 1% as control in 2% PPYS; AZT to 10 μm or 1 mM, or no addition as control in Isobroth) and plated in 96-well plates (Falcon), 100 μl per well at a density of 1 cell per well. 5 plates were prepared for each analog or control. Wells were scored for cell growth and plates were replica plated every 1-2 days (Ara-G and DMSO plates) or every 2-4 days (AZT and Isobroth control plates) to maintain approximate inoculation densities of 1-10 cells per well for each passage. Occasionally individual wells were passaged by hand (1 μl inoculated per well using a pipettor) into several blank wells, to expand the number of live wells per plate as single-cell cultures were lost over time due to low probability of being transferred at each passage. After passaging, cells were pooled, pelleted and stored at −80° C. until processed for DNA analysis.
To test whether we had missed such a subpopulation of cells, we carried out the same experiments on vegetatively dividing Tetrahymena cells in the presence and absence of drug, but in these experiments the subculturing was carried out by plating cells at an average of 1 to 10 cells per well in microtiter plate wells in the presence of 10 μM and 1 mM AZT, and 10 μM and 1 mM Ara-G. For each drug, cells were plated out in this manner for 30 consecutive days (90 to 150 cell generations) and 16 consecutive days (50 to 80 cell generations) respectively for the 10 μM and 1 mM drug concentrations. DNA was isolated at intervals from combined samplings of the wells for analysis of telomere length.

For test [2], the system named is Tetrahymena cells. The experiment in a line: Progeny formation (cycloheximide resistance) of Tetrahymena conjugated in the presence of analog. The test is classed as cell-based, Tetrahymena thermophila. To be noted: for # CHX-R: number of cycloheximide-resistant wells.
Test [3] relates to lymphoma cell line JY 616. Kind of test: Growth of cultured JY lymphoma cells with potential telomerase inhibitors. The settings on record: 50 μM; normal rate until week 3. Format: cell-based, human. The method, then: The effect of the agents on telomerase activity in intact cells was then studied utilizing the lymphoma cell line JY 616 which were maintained in RPMI 1640 with […] Hepes, 10% FCS, and penicillin/streptomycin (Gibco). The cells were cultured in 6-well plates (Falcon) with 5.0 ML of medium per well in duplicate. Cells were passaged every 7-10 days which corresponded to 5-7 mean population doublings (MPD), and seeded at 3×10^4 cells per well into fresh medium containing analog or control. Cell viability was monitored prior to harvest utilizing trypan blue stain (Gibco) during counting with a hemocytometer. The average ratio of stained: unstained cells (dead:alive) was […]. The intactness of the DNA was measured on a parallel gel by observing its mobility in a gel prior to digestion by a restriction enzyme.

Setting [4] is: 1 mM in Isobroth, single cell transfers.

Consider `Cc1cn([C@H]2C[C@H](N=[N+]=[N-])[C@@H](CO)O2)c(=O)[nH]c1=O` [AZT], for which the “plating efficiency compared with control medium” value in the test on Tetrahymena cells [1] (10 μM AZT, 10 μM or 1 mM Ara-G, 1 to 10 cells per well) is “no changes in the plating efficiency”. Also, the “mean length and size distribution of telomeric DNA of pooled fast cells” value with Tetrahymena cells [1] (1 mM in Isobroth) is recorded as “indistinguishable from those of control cells grown without AZT”. For the same compound, the “telomeric DNA of pooled slow cells” value in the test with Tetrahymena cells [1] (1 mM in Isobroth) is “slight decrease in mean telomere length and heterogeneity”. In addition, the “growth rate of the fast growth class” value in the test on Tetrahymena cells [1] (setting [4]) fell in the range of 2 to 4 cell doubling per day. Moreover, the “growth rate of the slow growth class” value in the test with Tetrahymena cells [1] (setting [4]) lay in the range of 0 to 1 cell doubling per day. The “% CHX-R” value in the test with Tetrahymena cells [2] (0.01 mM analog (head prints MM), first block for the analog) is 72%; in the test on Tetrahymena cells [2] (0.01 mM analog (head prints MM), second block for the analog) it was 73%; with Tetrahymena cells [2] (0.1 mM analog (head prints MM), first block for the analog), 68%; with Tetrahymena cells [2] (0.1 mM analog (head prints MM), second block for the analog) it was 67%; in the test with Tetrahymena cells [2] (1.0 mM analog (head prints MM), first block for the analog), 55%; in the test on Tetrahymena cells [2] (1.0 mM analog (head prints MM), second block for the analog) it was 48%. Moreover, the “% CHX-R” value with Tetrahymena cells [2] (5.0 mM analog (head prints MM), first block for the analog) was 63%; with Tetrahymena cells [2] (5.0 mM analog (head prints MM), second block for the analog), 53%. Besides, the “# CHX-R” value with Tetrahymena cells [2] (0.01 mM analog, first block for the analog) was 121; in the test with Tetrahymena cells [2] (0.01 mM analog, second block for the analog), 67; in the test on Tetrahymena cells [2] (0.1 mM analog, first block for the analog), 100; with Tetrahymena cells [2] (0.1 mM analog, second block for the analog) it was 128; with Tetrahymena cells [2] (1.0 mM analog, first block for the analog), 91; in the test on Tetrahymena cells [2] (1.0 mM analog, second block for the analog), 60. Besides, the “# CHX-R” value is 75 with Tetrahymena cells [2] (5.0 mM analog, first block for the analog) and 89 in the test on Tetrahymena cells [2] (5.0 mM analog, second block for the analog). Also, the “irreversible disruption of macronuclear development” value in the test with Tetrahymena cells [2] (analog present during conjugation) is “little or no irreversible disruption”. Also, the cell growth entry in test [3] is “ceased proliferating”.
